Test system: IL-17A-induced G-CSF production in human normal keratinocyte (NHK)
Assay: NHK assay: IL-17A-induced G-CSF production in normal human keratinocytes
Assay type: cell-based
Details: IL-17A 5 ng/mL, 24 h, G-CSF by HTRF, average if tested more than once
Protocol: IL-17A acts directly on keratinocytes through binding to dimeric receptor IL-17RA/RC and drives the production of a number of inflammatory mediators known to be elevated in psoriasis lesional tissue. IL-17A small molecule inhibitors that block the IL-17A to interact with IL-17R would inhibit the IL-17A signaling in its targeted cells such as keratinocytes. The compound functional activity is evaluated for its impact on IL-17A-induced G-CSF production in human normal keratinocyte (NHK).
Adult normal human keratinocytes are cultured in keratinocyte growth medium (Lonza) in a flask till reaching ˜90% confluence, then cells are transferred to a 384-well plate at density of 3000-4000 cell/well. Recombinant human IL-17A (Gibco PHC9174) is pre-incubated with titrated compound or DMSO for 1 h at rt then added to the cell culture plate. The final concentration of IL-17A is 5 ng/mL and DMSO is 0.2%, in the culture containing 5% FBS. Cells are cultured/treated for 24 h at 37° C. Supernatants are collected and G-CSF production is measured through HTRF technology using Human G-CSF Kit (CisBio). G-CSF concentration was extrapolated from the standard curve and IC50 is determined using GraphPad Prism. Cell viability is also evaluated using CellTiter-Glo kit (Promega) and effect of compound on cell viability is compared to DMSO control.

Compound	IC50	IC50 (Homo sapiens, Keratinocyte)
4-Cyclopropyl-N—((R)-1-(7-((S)-1-(5,5-difluoro-2-oxotetrahydropyrimidin-1(2H)-yl-4,4,6,6-d4)-2-methoxyethyl)imidazo[1,2-b]pyridazin-2-yl)-2-((1,1,1-trifluoro-2-methylpropan-2-yl)oxy)ethyl)-1,2,5-oxadiazole-3-carboxamide [Example 39]	< 50 nM	
COC[C@H](c1cnn2cc([C@@H](NC(=O)c3nonc3C3CC3)[C@H]3[C@@H]4CC(F)(F)C[C@@H]43)nc2c1)N1CC(F)(F)CNC1=O (relative stereo) [Example 51, 4-Cyclopropyl-N—((S*)-(7-((S)-1-(5,5-difluoro-2-oxotetrahydropyrimidin-1(2H)-yl)-2-methoxyethyl)imidazo[1,2-b]pyridazin-2-yl)((1R,5S,6r)-3,3-difluorobicyclo[3.1.0]hexan-6-yl)methyl)-1,2,5-oxadiazole-3-carboxamide]		< 50 nM
COC[C@H](c1cnn2cc([C@H](NC(=O)c3nonc3C3CC3)[C@@H]3CCC(F)(F)C3)nc2c1)N1CC(F)(F)CNC1=O (relative stereo) [Example 52, 4-Cyclopropyl-N—((R*)-(7-((S)-1-(5,5-difluoro-2-oxotetrahydropyrimidin-1(2H)-yl)-2-methoxyethyl)imidazo[1,2-b]pyridazin-2-yl)((R*)-3,3-difluorocyclopentyl)methyl)-1,2,5-oxadiazole-3-carboxamide]		< 50 nM
COC[C@H](c1cnn2cc([C@@H](NC(=O)c3nonc3C)[C@@H](C)OC(C)(C)C(F)(F)F)nc2c1)N1CC(F)(F)CNC1=O (relative stereo) [Example 60, N-((1R*,2R*)-1-(7-((S)-1-(5,5-Difluoro-2-oxotetrahydropyrimidin-1(2H)-yl)-2-methoxyethyl)imidazo[1,2-b]pyridazin-2-yl)-2-((1,1,1-trifluoro-2-methylpropan-2-yl)oxy)propyl)-4-methyl-1,2,5-oxadiazole-3-carboxamide]		< 50 nM
CCOCC(c1cnn2cc([C@@H](NC(=O)c3nonc3C)C3CCC(F)(F)CC3)nc2c1)N1CC(F)(F)CNC1=O (single isomer, unassigned) [Example 35, N—((S)-(7-((S*)-1-(5,5-Difluoro-2-oxotetrahydropyrimidin-1(2H)-yl)-2-ethoxyethyl)imidazo[1,2-b]pyridazin-2-yl)(4,4-difluorocyclohexyl)methyl)-4-methyl-1,2,5-oxadiazole-3-carboxamide]		< 50 nM
CCOCC(c1cnn2cc([C@@H](NC(=O)c3nonc3C3CC3)C3CCC(F)(F)CC3)nc2c1)N1CC(F)(F)CNC1=O (single isomer, unassigned) [Example 36, 4-Cyclopropyl-N—((S)-(7-((S*)-1-(5,5-difluoro-2-oxotetrahydropyrimidin-1(2H)-yl)-2-ethoxyethyl)imidazo[1,2-b]pyridazin-2-yl)(4,4-difluorocyclohexyl)methyl)-1,2,5-oxadiazole-3-carboxamide]		< 50 nM
COC[C@H](c1cnn2cc(C(CCC(C)(C)C(F)(F)F)NC(=O)c3nonc3C3CC3)nc2c1)N1CC(F)(F)CNC1=O (single isomer, unassigned) [Example 46, 4-Cyclopropyl-N—((S*)-1-(7-((S)-1-(5,5-difluoro-2-oxotetrahydropyrimidin-1(2H)-yl)-2-methoxyethyl)imidazo[1,2-b]pyridazin-2-yl)-5,5,5-trifluoro-4,4-dimethylpentyl)-1,2,5-oxadiazole-3-carboxamide]		< 50 nM
Cc1nonc1C(=O)N[C@H](c1cn2ncc([C@@H](C3CC3)N3CCC(C(F)(F)F)NC3=O)cc2n1)C1CCC(F)(F)CC1 (single isomer, unassigned) [Example 48, N—((S)-(7-((R)-Cyclopropyl((S*)-2-oxo-4-(trifluoromethyl)tetrahydropyrimidin-1(2H)-yl)methyl)imidazo[1,2-b]pyridazin-2-yl)(4,4-difluorocyclohexyl)methyl)-4-methyl-1,2,5-oxadiazole-3-carboxamide]		> 100 nM
Cc1nonc1C(=O)N[C@H](c1cn2ncc([C@@H](C3CC3)N3CCC(C(F)(F)F)NC3=O)cc2n1)C1CCC(F)(F)CC1 (single isomer, unassigned) [Example 49, N—((S)-(7-((R)-Cyclopropyl((R*)-2-oxo-4-(trifluoromethyl)tetrahydropyrimidin-1(2H)-yl)methyl)imidazo[1,2-b]pyridazin-2-yl)(4,4-difluorocyclohexyl)methyl)-4-methyl-1,2,5-oxadiazole-3-carboxamide]	> 100 nM	
Cc1nonc1C(=O)N[C@H](c1cn2ncc(C(COC3CCC3)N3CC(F)(F)CNC3=O)cc2n1)C1CCC(F)(F)CC1 (single isomer, unassigned) [Example 57, N—((S)-(7-((S*)-2-Cyclobutoxy-1-(5,5-difluoro-2-oxotetrahydropyrimidin-1(2H)-yl)ethyl)imidazo[1,2-b]pyridazin-2-yl)(4,4-difluorocyclohexyl)methyl)-4-methyl-1,2,5-oxadiazole-3-carboxamide]		< 50 nM
Cc1nonc1C(=O)N[C@H](c1cn2ncc(C(COC(C)C)N3CC(F)(F)CNC3=O)cc2n1)C1CCC(F)(F)CC1 (single isomer, unassigned) [Example 58, N—((S)-(7-((S*)-1-(5,5-Difluoro-2-oxotetrahydropyrimidin-1(2H)-yl)-2-isopropoxyethyl)imidazo[1,2-b]pyridazin-2-yl)(4,4-difluorocyclohexyl)methyl)-4-methyl-1,2,5-oxadiazole-3-carboxamide]		< 50 nM
CC(C)n1nccc1C(=O)N[C@H](c1cn2ncc([C@@H](COC3CC3)N3CC(F)(F)CNC3=O)cc2n1)C1CCC(F)(F)CC1 [Example 37, N—((S)-(7-((S)-2-Cyclopropoxy-1-(5,5-difluoro-2-oxotetrahydropyrimidin-1(2H)-yl)ethyl)imidazo[1,2-b]pyridazin-2-yl)(4,4-difluorocyclohexyl)methyl)-1-isopropyl-1H-pyrazole-5-carboxamide]		< 50 nM
Cc1nocc1C(=O)N[C@H](c1cn2ncc([C@@H](COC3CC3)N3CC(F)(F)CNC3=O)cc2n1)C1CCC(F)(F)CC1 [Example 38, N—((S)-(7-((S)-2-Cyclopropoxy-1-(5,5-difluoro-2-oxotetrahydropyrimidin-1(2H)-yl)ethyl)imidazo[1,2-b]pyridazin-2-yl)(4,4-difluorocyclohexyl)methyl)-3-methylisoxazole-4-carboxamide]		< 50 nM
COC[C@H](c1cnn2cc([C@H](CC(C)(C)C(F)(F)F)NC(=O)c3nonc3C3CC3)nc2c1)N1CC(F)(F)CNC1=O [Example 41, 4-Cyclopropyl-N—((S)-1-(7-((S)-1-(5,5-difluoro-2-oxotetrahydropyrimidin-1(2H)-yl)-2-methoxyethyl)imidazo[1,2-b]pyridazin-2-yl)-4,4,4-trifluoro-3,3-dimethylbutyl)-1,2,5-oxadiazole-3-carboxamide]		< 50 nM
COC[C@H](c1cnn2cc([C@@H](NC(=O)c3nonc3C3CC3)[C@@H](C)O[C@H](C)C(F)(F)F)nc2c1)N1CC(F)(F)CNC1=O [Example 42, 4-Cyclopropyl-N-((1R,2R)-1-(7-((S)-1-(5,5-difluoro-2-oxotetrahydropyrimidin-1(2H)-yl)-2-methoxyethyl)imidazo[1,2-b]pyridazin-2-yl)-2-(((R)-1,1,1-trifluoropropan-2-yl)oxy)propyl)-1,2,5-oxadiazole-3-carboxamide]		< 50 nM
COC[C@H](c1cnn2cc([C@@H](NC(=O)c3nonc3C3CC3)[C@@H](C)O[C@@H](C)C(F)(F)F)nc2c1)N1CC(F)(F)CNC1=O [Example 43, 4-Cyclopropyl-N-((1R,2R)-1-(7-((S)-1-(5,5-difluoro-2-oxotetrahydropyrimidin-1(2H)-yl)-2-methoxyethyl)imidazo[1,2-b]pyridazin-2-yl)-2-(((S)-1,1,1-trifluoropropan-2-yl)oxy)propyl)-1,2,5-oxadiazole-3-carboxamide]		< 50 nM
CC(C)(C[C@H](NC(=O)c1nonc1C1CC1)c1cn2ncc([C@@H](COC3CC3)N3CC(F)(F)CNC3=O)cc2n1)C(F)(F)F [Example 44, N—((S)-1-(7-((S)-2-Cyclopropoxy-1-(5,5-difluoro-2-oxotetrahydropyrimidin-1(2H)-yl)ethyl)imidazo[1,2-b]pyridazin-2-yl)-4,4,4-trifluoro-3,3-dimethylbutyl)-4-cyclopropyl-1,2,5-oxadiazole-3-carboxamide]		< 50 nM
Cc1nonc1C(=O)N[C@H](c1cn2ncc([C@@H](C3CC3)N3CCC4(CC4)NC3=O)cc2n1)C1CCC(F)(F)CC1 [Example 47, N—[(S)-[7-[(R)-Cyclopropyl-(7-oxo-6,8-diazaspiro[2.5]octan-6-yl)methyl]imidazo[1,2-b]pyridazin-2-yl]-(4,4-difluorocyclohexyl)methyl]-4-methyl-1,2,5-oxadiazole-3-carboxamide]		> 100 nM
Cc1nonc1C(=O)N[C@@H](CC(C)(C)C(F)(F)F)c1cn2ncc([C@@H](COC3CC3)N3CC(F)(F)CNC3=O)cc2n1 [Example 50, N—((S)-1-(7-((S)-2-Cyclopropoxy-1-(5,5-difluoro-2-oxotetrahydropyrimidin-1(2H)-yl)ethyl)imidazo[1,2-b]pyridazin-2-yl)-4,4,4-trifluoro-3,3-dimethylbutyl)-4-methyl-1,2,5-oxadiazole-3-carboxamide]		< 50 nM
